In patent publication US20060110456A1, “Method for biocidal and/or biostatic treatment and compositions therefor” (NATIONAL UNIVERSITY OF SINGAPORE, priority 2004, published 2006):
“Also recorded” adds a separate entry of the source. Where a name gives a salt, the structure may show the parent alone. Read-outs that look alike come from different tables or passages of the source.

Key:
[1] = tested on: biofilm bacteria (strains 4, 9, 14, 20, 27, 28); assay: Effect of pharmaceuticals on adhesion of bacteria to plastic / biofilm formation on NTC and TC plates; type: cell-based, marine bacteria isolated from Singapore fouling communities; conditions: for Effect on formation of bacterial biofilms on NTC and TC plates: 25 ug ml−1, NTC = untreated polystyrene, TC = tissue-culture treated, strains 4, 9, 14, 20, 27, 28; for Prevention of formation of biofilm: crude rank, best (1) to worst (8)
Protocol: Commercial forms of pharmaceuticals were used as previously described. […] These samples were sonicated for at least 1 min and these fine suspensions were used as initial stock solutions.
For studies of bacterial adhesion, the pharmaceuticals were first sterilized by soaking in absolute alcohol (Merck) for half an hour. Ethanol was removed by air-drying with air passed through 0.25 μm pore size syringe filter (Sartorius, Germany). Stock solutions were concentrations of 100 μg ml−1 in SDI.
The effect of pharmaceuticals on bacterial adhesion was analyzed using a modified microplate method adapted from Shea and Williamson (1990). This method employs a combination of staining attached bacteria with crystal violet, releasing the stain with sodium desoxycholate, and measuring the resulting absorbance of the crystal violet.
Detailed results for six selected strains are presented here: strains 4, 9, 14, 20, 27, 28. The bacterial strains were grown in Marine Broth (Pronadisa, Spain) overnight, in the dark, at 28° C. on a rotary shaker (150 rpm) in 5 ml centrifuge tubes (Falcon). Cells were harvested by centrifugation (1500×g, 10 min) and resuspended in sterile seawater (SSW). SSW was prepared by filtering seawater through a 0.2 μm pore size filter (Sartorius) followed by autoclaving. The cells were centrifuged and resuspended once more in SSW. The concentration of resuspended cells was adjusted to A600=1.0 using a spectrophotometer (Beckman DU530, USA).
Flat bottom 96 well polystyrene (hydrophobic, Falcon 351172) (=NTC) and tissue-culture treated polystyrene (hydrophilic, Falcon 353072) (=TC) microplates were used in the analyses. Each test was performed in triplicate. Two sets of experiments were conducted. […] For the control and blank wells, 25 ul of SDI were added. For wells containing pharmaceuticals, 25 ul of the respective pharmaceutical at a concentration of 100 ug ml−1 were added. This was immediately followed by the addition of 75 ul of bacterial suspension. To blanks were added 75 ul of SSW.
The bacterial cells in suspension were allowed to attach for 2 h at 28° C. Unattached cells were removed by aspiration using a plate washer (Tecan, Austria) and wells were rinsed three times with 200 ul of SSW each time. The attached cells were stained with 200 ul of crystal violet solution (0.1% w/v in deionized water) in each well for 5 min. After removing the stain using the plate washer, the wells were rinsed twice with 300 ul of SDI each time. Sodium desoxycholate (200 ul) solution (2% w/v in deionized water) was added to each well to extract the crystal violet from the attached stained cells for 10 min. The absorbance of the crystal violet was read at 590 nm using a microplate reader (Sunrise, Tecan, Austria).
Results of the adhesion assay were obtained by the difference in absorbance readings between wells containing bacterial cells and the mean of absorbance of those containing the SSW only. The effect of the pharmaceuticals on bacterial adhesion was determined by the examining the differences in absorbance between the wells containing the pharmaceuticals+bacteria and the bacteria. The significance was compared using T-test.

barnacle nauplii = assay: Toxicity of drugs under different light conditions and over time (stability in seawater); type: in vivo, Balanus amphitrite; conditions: for Change in toxicity on ageing in seawater, 12L:12D condition: 12 h light and 12 h dark; for Change in toxicity on ageing in seawater, 12L:12D condition / Change in toxicity on ageing in seawater, dark condition: after 4 weeks
Protocol: Preliminary experiments were carried out to examine the chemical stability of the drugs. 25 ug ml^−1 seawater suspensions of the drugs were prepared, in 3 replicates per condition, 3 replicate tubes containing 15 ml per test tube per prepared for each treatment type. The treatments consisted of: • i. Dark condition: tubes were wrapped in aluminium foil and kept in the dark at all times • ii. 12L:12D condition, where the tubes were subject incubated in a plant growth chamber with light regime of 12 hours light and 12 hours dark. • iii. UV treated tubes were subject to UV for half an hour. […] Sets (1) & (2) were tested at week 0, 1, 2 and after 4 weeks. “UV” set is only assayed after UV treatment. […] Effect of UV

[2] = tested on: marine bacteria (26 strains); assay: Disk inhibition assay; type: cell-based, marine bacteria isolated from Singapore fouling communities; conditions: for zone of inhibition at 25 µg/disc: 25 μg per disc; for zone of inhibition at 50 µg/disc: 50 μg per disc
Protocol: Preparation of Drugs onto Disks for Assay
The non-antibiotic pharmaceuticals of Table 1 were prepared in the following way. A tablet with a known amount of active ingredient (as stated in the product information) was ground in a mortar and pestle and suspended in sterile deionized water to a concentration of 2 mg ml^−1. These samples were sonicated for at least 1 min. […] The two halves of the capsule were separated and the powder released straight into a bottle and suitable amount of water added to make a concentration of 2 mg ml^−1.
As a comparison to the pharmaceuticals, to determine the susceptibility of the bacterial isolates to conventional antibiotics, commercially available antibiotic discs were used. Antibiotic discs (Oxoid® CT series) containing Ampicillin [Amp] (2 and 10 μg), Erythromycin [Ery] (5 and 15 μg), Streptomycin [Str] (10 and 25 μg) and Tetracycline [Tet] (5 and 30 μg) were placed on lawns of the bacterial strains inoculated as described below.
Sterile swabs dipped into the cultures were used to inoculate Marine Agar plates with a bacterial lawn by smearing the culture over the surface. After inoculating the plates, discs with antibiotics, pharmaceuticals or control blanks were placed on each plate. Each concentration of antibiotic or pharmaceutical was tested with three replicates on three separate occasions. After the disks were placed on the agar surface, plates were incubated overnight in the dark at 30° C. After incubation, plates were examined for zones of inhibition or clearing around control and treated disks. The diameter of any zone of clearing or inhibition was measured using Vernier calipers.
The assay was repeated three times with three replicates for each concentration used, each time.

[3] = crude rank, best (1) to worst (8)
[4] = 25 ug ml^−1 seawater suspension

## CN1CCN(C(c2ccccc2)c2ccccc2)CC1 [CYZ, Cyclizine hydrochloride]
[1]; hydrochloride
  Effect on formation of bacterial biofilms on NTC and TC plates: significantly more bacteria adhesion for strain 9; also recorded: No significant reduction in biofilm formation
[1]
  Prevention of formation of biofilm: 8
Barnacle nauplii; other studies carried out by the group
  Stability under UV and in seawater: does not breakdown under UV and remains stable after four months in seawater
[2]; 25 or 50 μg per disc, in words
  Antibiotic activity against marine bacteria: did not have any appreciable antibiotic activity against marine bacteria
[2]; [3]
  Antibiotic activity against marine bacteria: 8

## CCCCCCCCCC(=O)OC1(c2ccc(Cl)cc2)CCN(CCCC(=O)c2ccc(F)cc2)CC1 [HDL, haloperidol decanoate]
[1]
  Effect on formation of bacterial biofilms on NTC and TC plates: no significant difference from control; also recorded: On TC, there was a slight reduction in biofilm formation for strain 28 (p<0.1); also recorded: No significant reduction in biofilm formation was observed for most strains, except for strain 28, where there appears to be a slight effect (0.05<p<0.1)
  Prevention of formation of biofilm: 6
Barnacle nauplii; [4]
  Change in toxicity on ageing in seawater, 12L:12D condition: increased in toxicity
[2]; 25 or 50 μg per disc, in words
  Antibiotic activity against marine bacteria: did not have any appreciable antibiotic activity against marine bacteria
[2]; [3]
  Antibiotic activity against marine bacteria: 8

## CN(C)C(=O)C(CCN1CCC(O)(c2ccc(Cl)cc2)CC1)(c1ccccc1)c1ccccc1 [IMD, Loperamide hydrochloride]
[1]; hydrochloride
  Effect on formation of bacterial biofilms on NTC and TC plates: On NTC, there was a slight reduction in strain 28; also recorded: reduction of biofilm growth in strain 28 on NTC but not on TC
[1]
  Prevention of formation of biofilm: 7
[2]; 25 or 50 μg per disc, in words
  Antibiotic activity against marine bacteria: did not have any appreciable antibiotic activity against marine bacteria
[2]; [3]
  Antibiotic activity against marine bacteria: 8

## CN1CCN(CCCN2c3ccccc3Sc3ccc(Cl)cc32)CC1 [PCZ, prochlorperazine maleate]
[1]
  Effect on formation of bacterial biofilms on NTC and TC plates: reduced biofilm formation only for strains 4 and 27; also recorded: active against strain 4, and a slight effect on strain 27
  Prevention of formation of biofilm: 4
Barnacle nauplii; [4]
  Change in toxicity on ageing in seawater, 12L:12D condition: marked decrease in toxicity
  Change in toxicity on ageing in seawater, dark condition: appreciable decrease in toxicity
[2]
  Antibiotic activity against marine bacteria: strongest activity
[2]; [3]
  Antibiotic activity against marine bacteria: 3
[2]; strain 1 (Rhodovulum)
  zone of inhibition at 25 µg/disc: < 5 mm
  zone of inhibition at 50 µg/disc: < 5 mm
[2]; strain 2 (Erythrobacter)
  zone of inhibition at 25 µg/disc: < 5 mm
  zone of inhibition at 50 µg/disc: < 5 mm
[2]; strain 3 (Erythrobacter)
  zone of inhibition at 25 µg/disc: 10 to 19 mm
  zone of inhibition at 50 µg/disc: 10 to 19 mm
[2]; strain 4 (Bacillus)
  zone of inhibition at 25 µg/disc: 10 to 19 mm
  zone of inhibition at 50 µg/disc: 10 to 19 mm
[2]; strain 6 (Vibrio)
  zone of inhibition at 25 µg/disc: < 5 mm
  zone of inhibition at 50 µg/disc: 5 to 9 mm
[2]; strain 7 (Vibrio)
  zone of inhibition at 25 µg/disc: < 5 mm
  zone of inhibition at 50 µg/disc: < 5 mm
[2]; strain 8 (Bacillus)
  zone of inhibition at 25 µg/disc: 10 to 19 mm
  zone of inhibition at 50 µg/disc: 10 to 19 mm
[2]; strain 9 (Bacillus)
  zone of inhibition at 25 µg/disc: 10 to 19 mm
  zone of inhibition at 50 µg/disc: 10 to 19 mm
[2]; strain 10 (Halobacillus)
  zone of inhibition at 25 µg/disc: 10 to 19 mm
  zone of inhibition at 50 µg/disc: 10 to 19 mm
[2]; strain 11 (Pseudomonas)
  zone of inhibition at 25 µg/disc: 10 to 19 mm
  zone of inhibition at 50 µg/disc: 10 to 19 mm
[2]; strain 12 (Gordonia)
  zone of inhibition at 25 µg/disc: 10 to 19 mm
  zone of inhibition at 50 µg/disc: 20 to 29 mm
[2]; strain 13 (Bacillus)
  zone of inhibition at 25 µg/disc: 10 to 19 mm
  zone of inhibition at 50 µg/disc: 10 to 19 mm
[2]; strain 14 (Vibrio)
  zone of inhibition at 25 µg/disc: < 5 mm
  zone of inhibition at 50 µg/disc: < 5 mm
[2]; strain 16 (Pseudoalteromonas)
  zone of inhibition at 25 µg/disc: < 5 mm
  zone of inhibition at 50 µg/disc: < 5 mm
[2]; strain 17 (Gordonia)
  zone of inhibition at 25 µg/disc: 10 to 19 mm
  zone of inhibition at 50 µg/disc: 20 to 29 mm
[2]; strain 18 (Microbacterium)
  zone of inhibition at 25 µg/disc: 10 to 19 mm
  zone of inhibition at 50 µg/disc: 20 to 29 mm
[2]; strain 19 (Erythrobacter)
  zone of inhibition at 25 µg/disc: 10 to 19 mm
  zone of inhibition at 50 µg/disc: 10 to 19 mm
[2]; strain 20
  zone of inhibition at 25 µg/disc: 10 to 19 mm
  zone of inhibition at 50 µg/disc: 10 to 19 mm
[2]; strain 21
  zone of inhibition at 25 µg/disc: < 5 mm
  zone of inhibition at 50 µg/disc: 10 to 19 mm
[2]; strain 22
  zone of inhibition at 25 µg/disc: 10 to 19 mm
  zone of inhibition at 50 µg/disc: 10 to 19 mm
[2]; strain 24
  zone of inhibition at 25 µg/disc: 10 to 19 mm
  zone of inhibition at 50 µg/disc: 10 to 19 mm
[2]; strain 26
  zone of inhibition at 25 µg/disc: 5 to 9 mm
  zone of inhibition at 50 µg/disc: 10 to 19 mm
[2]; strain 27
  zone of inhibition at 25 µg/disc: 5 to 9 mm
  zone of inhibition at 50 µg/disc: 10 to 19 mm
[2]; strain 28
  zone of inhibition at 25 µg/disc: 10 to 19 mm
  zone of inhibition at 50 µg/disc: 10 to 19 mm
[2]; strain 29
  zone of inhibition at 25 µg/disc: 10 to 19 mm
  zone of inhibition at 50 µg/disc: 10 to 19 mm
[2]; strain 30
  zone of inhibition at 25 µg/disc: 10 to 19 mm
  zone of inhibition at 50 µg/disc: 10 to 19 mm

## CN[C@H]1CC[C@@H](c2ccc(Cl)c(Cl)c2)c2ccccc21.Cl [ZLT, sertraline hydrochloride]
[1]; hydrochloride
  Effect on formation of bacterial biofilms on NTC and TC plates: Biofilm formation was reduced for most strains except strain 14; also recorded: reduction of biofilm growth for most strains (except strain 14) on NTC, but only for strain 28 on TC
[1]
  Prevention of formation of biofilm: 3
Barnacle nauplii; [4]
  Change in toxicity on ageing in seawater, 12L:12D condition: not altered by any of the treatments applied
  Change in toxicity on ageing in seawater, dark condition: not altered by any of the treatments applied
Barnacle nauplii; 25 ug ml^−1 seawater suspension, UV for half an hour
  Effect of UV on drug toxicity to barnacle nauplii: not altered by any of the treatments applied
